pIC50: −log10 of the molar value.

In the assay the target is Beta-3 Adrenergic Receptor (Homo sapiens (Human), UniProt P13945). In words: Homogeneous Time-Resolved Fluorescence (HTRF) cAMP antagonist assay, IC50 determination. It counts as cell-based. The following applies: CHO-K1 cells stably expressing recombinant receptor, isoproterenol at EC90. In short, it runs like this:
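In this functional readout, recombinant CHO-K1 cells received compound, then isoproterenol at its EC90. After 1 h at room temperature, cAMP levels were determined by HTRF using an on-plate standard curve, and IC50 values were fitted.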
On the technique in general: In TR-FRET formats the signal depends on donor and acceptor labels being close together.

Beta-3 Adrenergic Receptor, sequence (P13945 whole entry, species assumed): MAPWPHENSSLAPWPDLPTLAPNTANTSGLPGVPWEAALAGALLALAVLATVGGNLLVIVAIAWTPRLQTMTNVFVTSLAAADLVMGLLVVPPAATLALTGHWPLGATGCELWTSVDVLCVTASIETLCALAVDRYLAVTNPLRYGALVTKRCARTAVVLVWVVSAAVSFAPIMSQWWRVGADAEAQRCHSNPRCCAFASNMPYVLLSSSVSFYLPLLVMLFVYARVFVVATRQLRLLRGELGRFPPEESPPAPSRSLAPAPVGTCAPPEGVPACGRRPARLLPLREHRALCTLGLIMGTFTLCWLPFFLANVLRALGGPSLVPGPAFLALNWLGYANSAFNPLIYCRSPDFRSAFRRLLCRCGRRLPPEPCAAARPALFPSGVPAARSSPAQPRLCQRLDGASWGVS

As to `O=S(=O)(NC1CC1)c1cccc(OC[C@@H](O)CNC2COC3(CCN(S(=O)(=O)c4ccc5ccccc5c4)CC3)C2)c1` (stereo partly drawn) [Compound 74, N-cyclopropyl-3-((2S)-2-hydroxy-3-(8-(naphthalen-2-ylsulfonyl)-1-oxa-8-azaspiro[4.5]decan-3-ylamino)propoxy)benzenesulfonamide], the pIC50 is 6.63.
In the case of `CNS(=O)(=O)c1cccc(OC[C@@H](O)CNC2COC3(CCN(S(=O)(=O)c4ccc(-c5ccncc5)cc4)CC3)C2)c1` (stereo partly drawn) [Compound 408, 3-((2S)-2-hydroxy-3-(8-(4-(pyridin-4-yl)phenylsulfonyl)-1-oxa-8-azaspiro[4.5]decan-3-ylamino)propoxy)-N-methylbenzenesulfonamide], the pIC50 was 7.41.
As for `CNS(=O)(=O)c1cccc(OC[C@@H](O)CNC2COC3(CCN(S(=O)(=O)c4cccc(OC)c4)CC3)C2)c1` (stereo partly drawn) [Compound 27, 3-((2S)-2-hydroxy-3-(8-(3-methoxyphenylsulfonyl)-1-oxa-8-azaspiro[4.5]decan-3-ylamino)propoxy)-N-methylbenzenesulfonamide], the figure is 7.86; as for `CNS(=O)(=O)c1cccc(OC[C@@H](O)CNC2COC3(CCN(S(=O)(=O)c4ccn(C)n4)CC3)C2)c1` (stereo partly drawn) [Compound 193, 3-((2S)-2-hydroxy-3-(8-(1-methyl-1H-pyrazol-3-ylsulfonyl)-1-oxa-8-azaspiro[4.5]decan-3-ylamino)propoxy)-N-methylbenzenesulfonamide], 7.26.
As for `CNS(=O)(=O)c1cccc(OC[C@@H](O)CNC2COC3(CCN(S(=O)(=O)c4ccc(OC)c(OC)c4)CC3)C2)c1` (stereo partly drawn) [Compound 153, 3-((2S)-3-(8-(3,4-dimethoxyphenylsulfonyl)-1-oxa-8-azaspiro[4.5]decan-3-ylamino)-2-hydroxypropoxy)-N-methylbenzenesulfonamide], the figure is 7.36; as for `CNS(=O)(=O)c1cccc(OC[C@@H](O)CN[C@H]2COC3(CCN(S(=O)(=O)c4cnc5ccc(F)cc5c4O)CC3)C2)c1` [Compound 534, 3-((S)-3-((R)-8-(6-fluoro-4-hydroxyquinolin-3-ylsulfonyl)-1-oxa-8-azaspiro[4.5]decan-3-ylamino)-2-hydroxypropoxy)-N-methylbenzenesulfonamide], 7.68; as for `CNS(=O)(=O)c1cccc(OC[C@@H](O)CN[C@H]2COC3(CCN(S(=O)(=O)c4cnc5[nH]c(C)c(Cl)c5c4)CC3)C2)c1` [Compound 517, 3-((S)-3-((R)-8-(3-chloro-2-methyl-1H-pyrrolo[2,3-b]pyridin-5-ylsulfonyl)-1-oxa-8-azaspiro[4.5]decan-3-ylamino)-2-hydroxypropoxy)-N-methylbenzenesulfonamide], 8.11.
As for `CNS(=O)(=O)c1cccc(OC[C@@H](O)CNC2COC3(CCN(S(=O)(=O)c4ccc(CN)cc4)CC3)C2)c1` (stereo partly drawn) [Compound 391, 3-((2S)-3-(8-(4-(aminomethyl)phenylsulfonyl)-1-oxa-8-azaspiro[4.5]decan-3-ylamino)-2-hydroxypropoxy)-N-methylbenzenesulfonamide], the figure is 6.35; as for `CNS(=O)(=O)c1cccc(OC[C@@H](O)CNC2COC3(CCN(S(=O)(=O)c4ccc(O)nc4)CC3)C2)c1` (stereo partly drawn) [Compound 395, 3-((2S)-2-hydroxy-3-(8-(6-hydroxypyridin-3-ylsulfonyl)-1-oxa-8-azaspiro[4.5]decan-3-ylamino)propoxy)-N-methylbenzenesulfonamide], 6.69.
For the molecule `CCC(CC)CNS(=O)(=O)c1cccc(OC[C@@H](O)CNC2COC3(CCN(S(=O)(=O)c4ccc5ccccc5c4)CC3)C2)c1` (stereo partly drawn) [Compound 97, N-(2-ethylbutyl)-3-((2S)-2-hydroxy-3-(8-(naphthalen-2-ylsulfonyl)-1-oxa-8-azaspiro[4.5]decan-3-ylamino)propoxy)benzenesulfonamide], the pIC50 was 6.90.

What is called pIC50 is the negative decadic logarithm of the IC50, by convention in mol/L.

Values taken from US11987588B2, “Modulators of the beta-3 adrenergic receptor useful for the treatment or prevention of heart failure and disorders related thereto” (Arena Pharmaceuticals, Inc., priority 2017, dated 2024).
